Where two headings read alike, the source gives them in different places.
How the values were obtained:
[1] = molecular target: T1, HCV NS5B polymerase (His-tagged, C-terminal 21 amino acid deleted NS5B, HC-J4) (Hepatitis C virus genotype 1b, UniProt O92972); assay: NS5b polymerase assay (biochemical RdRp assay, 3H-GTP incorporation, SPA beads); set-up: species or system HCV genotype 1b
T1 construct: The cDNA encoding NS5B amino acid 1-570 (HC-J4, genotype 1b); His tag (His6, from pET-21b) (C); made in house; host or cells: E. coli BL21 (DE3)
T1 sequence (O92972 2417-3000, looked up, stated change not applied): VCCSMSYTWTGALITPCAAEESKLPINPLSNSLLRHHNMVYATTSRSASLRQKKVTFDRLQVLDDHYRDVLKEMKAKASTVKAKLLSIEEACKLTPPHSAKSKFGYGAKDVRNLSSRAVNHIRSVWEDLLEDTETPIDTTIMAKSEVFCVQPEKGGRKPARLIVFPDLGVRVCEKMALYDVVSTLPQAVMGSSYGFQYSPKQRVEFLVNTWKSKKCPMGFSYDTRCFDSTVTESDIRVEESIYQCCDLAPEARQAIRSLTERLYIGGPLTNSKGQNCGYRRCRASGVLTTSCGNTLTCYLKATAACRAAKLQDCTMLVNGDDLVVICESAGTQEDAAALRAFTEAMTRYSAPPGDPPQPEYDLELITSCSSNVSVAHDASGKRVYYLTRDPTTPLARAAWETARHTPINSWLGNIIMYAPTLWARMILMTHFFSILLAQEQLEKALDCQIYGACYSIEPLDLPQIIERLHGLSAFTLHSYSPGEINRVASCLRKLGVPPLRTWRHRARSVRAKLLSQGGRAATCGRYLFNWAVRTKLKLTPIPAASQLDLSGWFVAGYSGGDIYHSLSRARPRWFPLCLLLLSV
How it was run: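 His-tagged C-terminal-21-aa-deleted NS5B (genotype 1b, HC-J4) at 200 nM was preincubated 15 min at RT with compound on 5′-biotinylated oligo(rG13)/poly(rC) template/primer before NTPs. Reaction with 600 nM GTP plus 0.1 μCi 3H-GTP and 5 mM MgCl2 in Tris pH 7.5 ran 2 h at 25 °C. Stopped with EDTA/SPA beads for incorporation counting.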

[2] = tested on: HCV replicon RNA replication in Huh-7 luc/neo (Huh-Luc) cells; assay: HCV replicon assay (stable replicon cell reporter assay, luciferase read-out); type: cell-based, HCV type 1b
How it was run: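 Huh-7 cells stably carry a bicistronic HCV 1b NS3-NS5B subgenomic replicon with firefly luciferase and neo markers. Cells were plated with compound across a concentration range and incubated three days. Replication was measured as luciferase activity to give dose-response curves.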

[3] = NS5B Polymerase Assay IC50, 200 nM enzyme, 3H-GTP incorporation, 2 h at 25° C.
[4] = Hepatitis C virus, Huh-7, 72 h, read-out: Replicon Assay EC50, Huh-Luc cells, three days incubation, luciferase activity
[5] = NS5B Polymerase Assay IC50 (μM)
[6] = Hepatitis C virus, Huh-7, 72 h, read-out: Replicon Assay EC50 (μM), Huh-Luc cells, incubation of three days, luciferase activity
[7] = 200 nM enzyme, 3H-GTP incorporation, 2 h at 25° C., read-out: NS5B Polymerase Assay IC50
[8] = Huh-Luc cells, three days incubation, luciferase activity, read-out: Replicon Assay EC50
[9] = read-out: Replicon Assay EC50, Huh-Luc cells, three days incubation, luciferase activity

Row | SMILES | IC50 [1, 3] | IC50 [1, 5] | EC50 [2, 6] | also measured
1 | COc1cccc(C2C3=C(CC(C)(C)CC3=O)Nc3ccccc3N2C(=O)Cc2ccc(Cl)cc2)c1 (stereo not drawn) [compound 34] | > 42.7 µM | – | – | EC50 [2, 4]: 6.81 µM
2 | CCCOc1ccccc1C1C2=C(CC(C)(C)CC2=O)Nc2ccccc2N1C(C)=O (stereo not drawn) [compound 130] | > 42.7 µM | – | – | EC50 [2, 4]: > 32 µM
3 | COc1ccc([C@@H]2CC(=O)C3=C(C2)Nc2ccccc2N[C@H]3c2ccc3c(c2)OCO3)cc1OC [compound 494] | – | > 42.7 µM | 21.7 µM | –
4 | COc1ccc(C2CC(=O)C3=C(C2)Nc2ccccc2N(C(C)=O)C3c2cccc([N+](=O)[O-])c2)cc1OC (stereo not drawn) [compound 172] | – | – | – | IC50 [1, 7]: > 42.7 µM; EC50 [2, 8]: 11.3 µM
5 | COc1ccc(C2Nc3ccccc3NC3=C2C(=O)CC(C)(C)C3)cc1COc1ccc(F)cc1F (stereo not drawn) [compound 430] | – | > 33.3 µM | 10.8 µM | –
6 | CCOc1ccccc1C1C2=C(CC(c3ccc(OC)cc3)CC2=O)Nc2ccccc2N1C(C)=O (stereo not drawn) [compound 179] | – | – | – | IC50 [1, 7]: > 42.7 µM; EC50 [2, 8]: 8.54 µM
7 | CC(=O)N1c2c(C)cccc2NC2=C(C(=O)CC(C)(C)C2)C1c1ccc(Cl)cc1Cl (stereo not drawn) [compound 314] | 4.43 µM | – | – | EC50 [2, 4]: 3 µM
8 | CC(=O)N1c2ccccc2NC2=C(C(=O)CC(C)(C)C2)C1c1ccc(OCc2ccccc2)cc1 (stereo not drawn) [compound 42] | – | – | – | IC50 [1, 7]: 5.68 µM; EC50 [2, 8]: 6.39 µM
9 | COc1ccc([C@@H]2CC(=O)C3=C(C2)Nc2ccccc2N[C@H]3c2coc3ccccc3c2=O)cc1OC [compound 495] | – | > 42.7 µM | 3.69 µM | –
10 | COc1ccc(C2CC(=O)C3=C(C2)Nc2ccccc2NC3c2ccc([N+](=O)[O-])cc2)cc1 (stereo not drawn) [compound 387] | – | > 42.7 µM | 5.56 µM | –
11 | CC1(C)CC(=O)C2=C(C1)Nc1ccccc1NC2c1ccc(C(F)(F)F)cc1 (stereo not drawn) [compound 429] | – | > 42.7 µM | > 31 µM | –
12 | CC(=O)N1c2ccccc2NC2=C(C(=O)CC(C)(C)C2)C1c1ccc(Oc2ccccc2)cc1 (stereo not drawn) [compound 134, 10-acetyl-11-(4-phenoxyphenyl)-3,3-dimethyl-2,3,4,5,10,11-hexahydro-1H-dibenzo[b,e][1,4]diazepin-1-one] | 47.3 µM | – | – | EC50 [2, 4]: 4.64 µM
13 | CC(=O)N1c2ccccc2NC2=C(C(=O)CC(C)(C)C2)C1c1ccc(Cl)cc1Cl (single isomer, unassigned) [compound 35, 10-Acetyl-11-(2,4-dichlorophenyl)-2,3,4,5,10,11-hexahydro-3,3-dimethyl-1H-dibenzo[b,e][1,4]diazepin-1-one] | 1.28 µM | – | – | EC50 [2, 9]: 20.5 µM
14 | CC(C)C(=O)N1c2ccccc2NC2=C(C(=O)CC(C)(C)C2)C1c1ccccc1F (stereo not drawn) [compound 23] | > 42.7 µM | – | – | EC50 [2, 4]: 20.3 µM
15 | CC(=O)N1c2ccccc2NC2=C(C(=O)CC(C)(C)C2)C1c1ccccc1OCc1ccccc1 (stereo not drawn) [compound 19] | > 42.7 µM | – | – | EC50 [2, 9]: > 32 µM
16 | CC1(C)CC(=O)C2=C(C1)Nc1ccccc1NC2c1cc2c(cc1[N+](=O)[O-])OCO2 (stereo not drawn) [compound 505] | – | > 42.7 µM | 13.5 µM | –
17 | CC1(C)CC(=O)C2=C(C1)Nc1ccccc1N(C(=O)Cc1ccccc1)C2c1cccs1 (stereo not drawn) [compound 240] | > 42.7 µM | – | – | EC50 [2, 4]: 7.73 µM
18 | CC(=O)N1c2ccccc2NC2=C(C(=O)CC(C)(C)C2)C1c1ccc(F)cc1 (stereo not drawn) [compound 4] | > 42.7 µM | – | – | EC50 [2, 4]: > 32 µM
19 | COc1ccc(C2Nc3ccccc3NC3=C2C(=O)CC(C)(C)C3)cc1OCc1ccccc1 (stereo not drawn) [compound 424] | – | 11.6 µM | 12.5 µM | –
20 | COc1ccc([C@@H]2CC(=O)C3=C(C2)Nc2ccccc2N[C@H]3c2cc3c(cc2Br)OCO3)cc1 [compound 486] | – | > 42.7 µM | 3.31 µM | –
21 | CC(=O)N1c2ccccc2NC2=C(C(=O)CC(c3ccccc3Cl)C2)C1c1ccc(C)cc1 (stereo not drawn) [compound 229] | – | – | – | IC50 [1, 7]: > 42.7 µM; EC50 [2, 8]: 10.9 µM

Row | SMILES | IC50 [1, 3] | IC50 [1, 5] | EC50 [2, 6] | also measured
22 | O=C1CC(c2ccccc2)CC2=C1C(c1ccc(C(F)(F)F)cc1)Nc1ccccc1N2 (stereo not drawn) [compound 343] | – | > 42.7 µM | 11 µM | –
23 | COc1ccc(C2CC(=O)C3=C(C2)Nc2ccccc2NC3c2cccc(O)c2)cc1 (stereo not drawn) [compound 392] | – | > 42.7 µM | 22.6 µM | –
24 | CC1(C)CC(=O)C2=C(C1)Nc1ccccc1N(C(=O)Cc1ccccc1)C2c1c(F)cccc1Cl (stereo not drawn) [compound 69] | > 42.7 µM | – | – | EC50 [2, 4]: 4.58 µM
25 | CC1(C)CC(=O)C2=C(C1)Nc1ccccc1N(C(=O)C(F)(F)F)C2c1ccc(-c2ccc([N+](=O)[O-])cc2)o1 (stereo not drawn) [compound 257] | > 42.7 µM | – | – | EC50 [2, 4]: 22.4 µM
26 | CCCCCC(=O)N1c2ccccc2NC2=C(C(=O)CC(c3ccc(OC)c(OC)c3)C2)C1c1ccc(Cl)cc1 (mixture of isomers) [compound 185] | – | – | – | IC50 [1, 7]: > 33.3 µM; EC50 [2, 8]: 4.79 µM
27 | O=C1CC(c2ccco2)CC2=C1C(c1ccc(Cl)cc1)Nc1ccccc1N2 (stereo not drawn) [compound 413] | – | > 33.3 µM | 12 µM | –
28 | CCCOc1ccccc1C1CC(=O)C2=C(C1)Nc1ccccc1N(C(=O)C(F)(F)F)C2c1ccc(OC)cc1 (stereo not drawn) [compound 163] | – | – | – | IC50 [1, 7]: > 42.7 µM; EC50 [2, 8]: 1.76 µM
29 | Cc1cc2c(cc1C)NC(c1ccc(Cl)c([N+](=O)[O-])c1)C1=C(CC(C)(C)CC1=O)N2 (stereo not drawn) [compound 452] | – | > 42.7 µM | 19.7 µM | –
30 | CCC(=O)N1c2ccc(C(=O)c3ccccc3)cc2NC2=C(C(=O)CC(C)(C)C2)C1c1ccco1 (stereo not drawn) [compound 261] | – | – | – | IC50 [1, 7]: > 42.7 µM; EC50 [2, 8]: 9.3 µM
31 | O=C1CCCC2=C1C(c1ccc(Cl)cc1Cl)Nc1ccccc1N2 (stereo not drawn) [compound 421] | – | > 133 µM | 51.9 µM | –
32 | CCOc1ccc(C2Nc3ccccc3NC3=C2C(=O)CC(c2ccc(OC)cc2)C3)cc1 (stereo not drawn) [compound 332] | – | > 42.7 µM | 9.74 µM | –
33 | COc1ccc(C2CC(=O)C3=C(C2)Nc2ccccc2NC3c2ccc(OC)cc2OC)cc1 (stereo not drawn) [compound 372] | – | > 42.7 µM | 1.94 µM | –
34 | COc1ccc(C2CC(=O)C3=C(C2)Nc2ccccc2NC3c2cc(OC)ccc2OC)cc1 (stereo not drawn) [compound 336] | – | > 42.7 µM | 13.8 µM | –
35 | COc1cccc(C2C3=C(CC(C)(C)CC3=O)Nc3ccccc3N2C(=O)Cc2ccccc2)c1 (stereo not drawn) [compound 82] | > 42.7 µM | – | – | EC50 [2, 4]: 6.8 µM
36 | COc1ccc(C2CC(=O)C3=C(C2)Nc2ccccc2NC3c2cccc(Cl)c2Cl)cc1 (stereo not drawn) [compound 357] | – | > 42.7 µM | 7.01 µM | –
37 | CC1(C)CC(=O)C2=C(C1)Nc1ccccc1N(C(=O)C(F)(F)F)C2c1ccccc1Cl (stereo not drawn) [compound 87] | > 42.7 µM | – | – | EC50 [2, 4]: > 32 µM
38 | CC1(C)CC(=O)C2=C(C1)Nc1ccccc1N(C(=O)C(F)(F)F)C2c1ccc([N+](=O)[O-])cc1 (stereo not drawn) [compound 89] | > 42.7 µM | – | – | EC50 [2, 4]: 5.32 µM
39 | CCn1c2ccccc2c2cc([C@@H]3Nc4ccccc4NC4=C3C(=O)C[C@@H](c3ccc(OC)c(OC)c3)C4)ccc21 [compound 477] | – | > 42.7 µM | 4.49 µM | –
40 | CC1(C)CC(=O)C2=C(C1)Nc1ccccc1NC2c1ccc(F)cc1F (stereo not drawn) [compound 441, 11-(2,4-difluorophenyl)-3,3-dimethyl-2,3,4,5,10,11-hexahydro-1H-dibenzo[b,e][1,4]diazepin-1-one] | – | > 133 µM | > 100 µM | –
41 | COc1ccc(C2C3=C(CC(c4cccc([N+](=O)[O-])c4)CC3=O)Nc3ccccc3N2C(C)=O)cc1OC (mixture of isomers) [compound 180] | – | – | – | IC50 [1, 7]: > 42.7 µM; EC50 [2, 8]: 11.8 µM
42 | COc1cc(C2Nc3ccccc3NC3=C2C(=O)CC(c2ccccc2)C3)cc(OC)c1OC (stereo not drawn) [compound 339] | – | > 42.7 µM | 9.15 µM | –
